Measurements from patent US20250051338A1, “TYK2 DEGRADERS AND USES THEREOF” (Kymera Therapeutics, Inc., priority 2021, published 2025).

Key:
Type in all cases: cell-based
TYK2 [1] = molecular target: T1, TYK2 (Homo sapiens, UniProt P29597); experiment: TYK2 degradation MSD assay in human PBMC cells; parameters: endogenous in cells; host or cells: human PBMC; conditions: 4 to 24 hours incubation, read-out: TYK2 MSD DC50 rating in human PBMC
Summary of the method: (§1)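 0.4 million cells/well; cpd 9-dose 1:3 titration, top 1–10 μM; 4–24 h, 37° C, 5% CO2; RIPA lysis; TYK2 capture/detection sandwich on MSD, SULFO-TAG anti-rabbit secondary; DC50 via 4-parameter fit.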

TYK2 [2] = molecular target: T1, TYK2; experiment: TYK2 degradation MSD assay in EBV-B cells; parameters: endogenous in cells; host or cells: EBV-B cells; conditions: 4 to 24 hours incubation, read-out: TYK2 MSD DC50 rating in EBV-B
Summary of the method: as §1

TYK2 [3] = molecular target: T1, TYK2; experiment: TYK2 degradation MSD assay in OCI-LY10 cells; parameters: endogenous in cells; host or cells: EBV-B cells; conditions: 4 to 24 hours incubation, read-out: TYK2 MSD DC50 rating in OCI-LY10
Summary of the method: as §1

T1 sequence (P29597 whole entry): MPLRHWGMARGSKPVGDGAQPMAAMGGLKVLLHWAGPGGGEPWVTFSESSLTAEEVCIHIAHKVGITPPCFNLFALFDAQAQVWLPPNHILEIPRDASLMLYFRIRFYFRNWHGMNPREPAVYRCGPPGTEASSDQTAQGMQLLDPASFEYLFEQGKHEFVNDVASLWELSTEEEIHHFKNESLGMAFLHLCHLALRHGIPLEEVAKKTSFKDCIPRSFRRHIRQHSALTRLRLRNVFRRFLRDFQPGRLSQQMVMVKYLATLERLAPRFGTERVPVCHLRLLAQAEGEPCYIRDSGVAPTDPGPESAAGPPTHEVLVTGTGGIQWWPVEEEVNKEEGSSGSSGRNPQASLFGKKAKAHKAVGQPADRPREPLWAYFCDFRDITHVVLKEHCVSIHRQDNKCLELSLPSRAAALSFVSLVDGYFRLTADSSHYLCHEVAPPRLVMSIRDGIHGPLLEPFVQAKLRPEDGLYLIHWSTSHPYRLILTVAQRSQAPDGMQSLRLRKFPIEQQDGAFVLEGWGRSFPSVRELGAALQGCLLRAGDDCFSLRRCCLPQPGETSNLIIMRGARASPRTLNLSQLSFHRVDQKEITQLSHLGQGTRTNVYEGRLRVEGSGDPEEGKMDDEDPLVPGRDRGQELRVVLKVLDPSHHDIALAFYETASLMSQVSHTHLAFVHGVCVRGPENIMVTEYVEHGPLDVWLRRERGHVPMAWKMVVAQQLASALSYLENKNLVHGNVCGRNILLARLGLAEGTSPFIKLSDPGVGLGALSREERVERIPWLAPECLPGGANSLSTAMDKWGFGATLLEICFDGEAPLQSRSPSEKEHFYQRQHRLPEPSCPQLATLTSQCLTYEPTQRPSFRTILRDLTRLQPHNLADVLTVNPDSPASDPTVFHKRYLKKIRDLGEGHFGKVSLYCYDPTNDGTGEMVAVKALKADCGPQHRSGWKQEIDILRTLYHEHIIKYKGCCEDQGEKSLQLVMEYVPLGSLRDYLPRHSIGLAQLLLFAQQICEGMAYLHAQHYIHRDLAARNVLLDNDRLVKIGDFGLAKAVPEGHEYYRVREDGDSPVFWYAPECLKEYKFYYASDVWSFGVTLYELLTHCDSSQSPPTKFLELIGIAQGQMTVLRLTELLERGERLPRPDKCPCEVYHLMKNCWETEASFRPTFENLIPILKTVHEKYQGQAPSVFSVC

Row | Structure (SMILES) | DC50 (TYK2 [1]) [nM] | DC50 (TYK2 [2]) [nM] | DC50 (TYK2 [3]) [nM]
1 | CNc1cc(Nc2cccn(-c3ccc(C(=O)N4CC5(CCN(c6ccc7c(c6)n(C)c(=O)n7C6CCC(=O)NC6=O)CC5)C4)cn3)c2=O)nn2c(C(=O)N[C@@H]3C[C@@H]3F)cnc12 (stereo partly drawn) [Example K388] | > 100 | > 100 | > 100
2 | CNc1cc(Nc2cccc(-c3ccc(CN4CC5(CCN(C(=O)c6ccc(Cl)c(N7CCC(=O)NC7=O)c6)CC5)C4)cn3)c2)nn2c(C(=O)N[C@@H]3C[C@@H]3F)cnc12 [Example K506] | > 100 | 10 to 100 | 1 to 10
3 | CNC(=O)c1cnc(Nc2ccc(CN(C)C3CCN(c4ccc5c(c4)n(C)c(=O)n5C4CCC(=O)NC4=O)CC3)cn2)cc1Nc1cccc(-c2ncc(F)cn2)c1OC (stereo not drawn) [Example K155] | < 1 | < 1 | > 100
4 | CNc1cc(Nc2cccc(N3CCC(CN4CCN(c5cccc6c(C7CCC(=O)NC7=O)cncc56)CC4)CC3)c2)nn2c(C(=O)N[C@@H]3C[C@@H]3F)cnc12 (stereo partly drawn) [Example K503] | > 100 | > 100 | > 100
5 | COc1c(Nc2cc(Nc3ccc(C(=O)NCCCCc4cccc5c4n(C)c(=O)n5C4CCC(=O)NC4=O)cn3)ncc2C(=O)NC2CC2)cccc1-c1ncc(F)cn1 (stereo not drawn) [Example K180] | 1 to 10 | 10 to 100 | > 100
6 | CNc1cc(Nc2cccn(-c3cccc(C(=O)NCCCCc4cccc5c4n(C)c(=O)n5C4CCC(=O)NC4=O)c3)c2=O)nn2c(C(=O)N[C@@H]3C[C@@H]3F)cnc12 (stereo partly drawn) [Example K220] | > 100 | > 100 | > 100
7 | CNc1cc(Nc2cccc(-c3ccc(CN4CCN(c5ccc(-c6ccc7c(c6)n(C)c(=O)n7C6CCC(=O)NC6=O)cc5)CC4)cn3)c2)nn2c(C(=O)NC3CCC3)cnc12 (stereo not drawn) [Example K483] | > 100 | > 100 | 1 to 10
8 | CNc1cc(Nc2cccc(CN3CCC34CN(c3ncc(C#Cc5ccc6c(c5)n(C)c(=O)n6C5CCC(=O)NC5=O)cn3)C4)c2)nn2c(C(=O)NC3CC3)cnc12 (stereo not drawn) [Example K580] | > 100 | > 100 | > 100
9 | CNC(=O)c1cnc(Nc2ccc(CN3CCN(CCc4ccc5c(c4)n(C)c(=O)n5C4CCC(=O)NC4=O)CC3)cn2)cc1Nc1cccc(-c2ncc(F)cn2)c1OC (stereo not drawn) [Example K138] | < 1 | < 1 | > 100
10 | CNc1cc(Nc2cccn(-c3ccc(C(=O)NCCOCCOCCOCCOCCOCCOCCc4cccc5c4n(C)c(=O)n5C4CCC(=O)NC4=O)cn3)c2=O)nn2c(C(=O)N[C@@H]3C[C@@H]3F)cnc12 (stereo partly drawn) [Example K217] | 10 to 100 | 10 to 100 | > 100
11 | CNc1cc(Nc2cccc(-c3ccc(CN4CCN(c5ccc(-c6ccc7c(c6)n(C)c(=O)n7C6CCC(=O)NC6=O)cc5)CC4)cn3)c2)nn2c(-c3cn(C(C)C)nn3)cnc12 (stereo not drawn) [Example K534] | > 100 | > 100 | 1 to 10
12 | CNc1cc(Nc2cccc(C(=O)NCCCCCCCCc3cccc4c3n(C)c(=O)n4C3CCC(=O)NC3=O)c2)nn2c(C(=O)N[C@@H]3C[C@@H]3F)cnc12 (stereo partly drawn) [Example K254] | 1 to 10 | > 100 | > 100
13 | CNC(=O)c1cnc(Nc2ccc(CN3CCCC4(C3)CN(c3ncc(C#Cc5ccc6c(c5)n(C)c(=O)n6C5CCC(=O)NC5=O)cn3)C4)cn2)cc1Nc1cccc(-c2ncc(F)cn2)c1OC (stereo not drawn) [Example K145] | 1 to 10 | 1 to 10 | > 100
14 | CNc1cc(Nc2cccc(CN(C)Cc3ccc(-c4ccc5c(c4)n(C)c(=O)n5C4CCC(=O)NC4=O)cn3)c2)nn2c(C(=O)NC3CC3)cnc12 (stereo not drawn) [Example K605] | > 100 | > 100 | > 100
15 | CNC(=O)c1cnc(Nc2ccc(CN(C)C3CCN(Cc4cccc5c4n(C)c(=O)n5C4CCC(=O)NC4=O)CC3)cn2)cc1Nc1cccc(-c2ncc(F)cn2)c1OC (stereo not drawn) [Example K137] | < 1 | < 1 | > 100
16 | CNc1cc(-c2cnn(C3CCN(C(=O)NCCCCCCCCc4ccc5c(c4)n(C)c(=O)n5C4CCC(=O)NC4=O)CC3)c2)nn2c(C(=O)N[C@@H]3C[C@@H]3F)cnc12 (stereo partly drawn) [Example K296] | < 1 | > 100 | > 100
17 | CNc1cc(Nc2cccc(-c3ccc(CN4CCC(C#Cc5ccc6c(c5)n(C)c(=O)n6C5CCC(=O)NC5=O)CC4)cn3)c2)nn2c(C(=O)N[C@@H]3C[C@@H]3F)cnc12 (stereo partly drawn) [Example K436] | > 100 | > 100 | < 1
18 | CNc1cc(-c2cccc(C(=O)NCCCCCCCCc3cccc4c3n(C)c(=O)n4C3CCC(=O)NC3=O)c2)nn2c(C(=O)N[C@@H]3C[C@@H]3F)cnc12 (stereo partly drawn) [Example K310] | > 100 | > 100 | > 100
